Measured values taken from patent US20200085838A1, “METHODS OF TREATING EPILEPSY AND NEURODEVELOPMENTAL DISORDERS” (Praxis Precision Medicines, Inc., priority 2017, published 2020).

How the values were obtained:
Format in all cases: cell-based
[1] = biological target: T1, human wild-type (WT) Nav1.2 (Homo sapiens, UniProt Q99250); assay: Whole-cell patch clamp of sodium currents (INa) in CHO cells transiently expressing wild-type Nav1.2; details: WT Nav1.2, CHO cells, mean±SEM
T1 construct: expressed in transfected cells; host or cells: CHO cells

[2] = biological target: T2, human R1882Q Nav1.2 (Homo sapiens, UniProt Q99250, R1882Q); assay: Whole-cell patch clamp of sodium currents (INa) in CHO cells transiently expressing R1882Q Nav1.2; details: R1882Q Nav1.2, CHO cells, mean±SEM
T2 construct: expressed in transfected cells; host or cells: CHO cells

[3] = biological target: T3, human K905N Nav1.2 (Homo sapiens, UniProt Q99250, K905N); assay: Whole-cell patch clamp of sodium currents (INa) in CHO cells transiently expressing K905N Nav1.2; details: K905N Nav1.2, CHO cells, mean±SEM
T3 construct: expressed in transfected cells; host or cells: CHO cells
T3 sequence (Q99250 whole entry K905N): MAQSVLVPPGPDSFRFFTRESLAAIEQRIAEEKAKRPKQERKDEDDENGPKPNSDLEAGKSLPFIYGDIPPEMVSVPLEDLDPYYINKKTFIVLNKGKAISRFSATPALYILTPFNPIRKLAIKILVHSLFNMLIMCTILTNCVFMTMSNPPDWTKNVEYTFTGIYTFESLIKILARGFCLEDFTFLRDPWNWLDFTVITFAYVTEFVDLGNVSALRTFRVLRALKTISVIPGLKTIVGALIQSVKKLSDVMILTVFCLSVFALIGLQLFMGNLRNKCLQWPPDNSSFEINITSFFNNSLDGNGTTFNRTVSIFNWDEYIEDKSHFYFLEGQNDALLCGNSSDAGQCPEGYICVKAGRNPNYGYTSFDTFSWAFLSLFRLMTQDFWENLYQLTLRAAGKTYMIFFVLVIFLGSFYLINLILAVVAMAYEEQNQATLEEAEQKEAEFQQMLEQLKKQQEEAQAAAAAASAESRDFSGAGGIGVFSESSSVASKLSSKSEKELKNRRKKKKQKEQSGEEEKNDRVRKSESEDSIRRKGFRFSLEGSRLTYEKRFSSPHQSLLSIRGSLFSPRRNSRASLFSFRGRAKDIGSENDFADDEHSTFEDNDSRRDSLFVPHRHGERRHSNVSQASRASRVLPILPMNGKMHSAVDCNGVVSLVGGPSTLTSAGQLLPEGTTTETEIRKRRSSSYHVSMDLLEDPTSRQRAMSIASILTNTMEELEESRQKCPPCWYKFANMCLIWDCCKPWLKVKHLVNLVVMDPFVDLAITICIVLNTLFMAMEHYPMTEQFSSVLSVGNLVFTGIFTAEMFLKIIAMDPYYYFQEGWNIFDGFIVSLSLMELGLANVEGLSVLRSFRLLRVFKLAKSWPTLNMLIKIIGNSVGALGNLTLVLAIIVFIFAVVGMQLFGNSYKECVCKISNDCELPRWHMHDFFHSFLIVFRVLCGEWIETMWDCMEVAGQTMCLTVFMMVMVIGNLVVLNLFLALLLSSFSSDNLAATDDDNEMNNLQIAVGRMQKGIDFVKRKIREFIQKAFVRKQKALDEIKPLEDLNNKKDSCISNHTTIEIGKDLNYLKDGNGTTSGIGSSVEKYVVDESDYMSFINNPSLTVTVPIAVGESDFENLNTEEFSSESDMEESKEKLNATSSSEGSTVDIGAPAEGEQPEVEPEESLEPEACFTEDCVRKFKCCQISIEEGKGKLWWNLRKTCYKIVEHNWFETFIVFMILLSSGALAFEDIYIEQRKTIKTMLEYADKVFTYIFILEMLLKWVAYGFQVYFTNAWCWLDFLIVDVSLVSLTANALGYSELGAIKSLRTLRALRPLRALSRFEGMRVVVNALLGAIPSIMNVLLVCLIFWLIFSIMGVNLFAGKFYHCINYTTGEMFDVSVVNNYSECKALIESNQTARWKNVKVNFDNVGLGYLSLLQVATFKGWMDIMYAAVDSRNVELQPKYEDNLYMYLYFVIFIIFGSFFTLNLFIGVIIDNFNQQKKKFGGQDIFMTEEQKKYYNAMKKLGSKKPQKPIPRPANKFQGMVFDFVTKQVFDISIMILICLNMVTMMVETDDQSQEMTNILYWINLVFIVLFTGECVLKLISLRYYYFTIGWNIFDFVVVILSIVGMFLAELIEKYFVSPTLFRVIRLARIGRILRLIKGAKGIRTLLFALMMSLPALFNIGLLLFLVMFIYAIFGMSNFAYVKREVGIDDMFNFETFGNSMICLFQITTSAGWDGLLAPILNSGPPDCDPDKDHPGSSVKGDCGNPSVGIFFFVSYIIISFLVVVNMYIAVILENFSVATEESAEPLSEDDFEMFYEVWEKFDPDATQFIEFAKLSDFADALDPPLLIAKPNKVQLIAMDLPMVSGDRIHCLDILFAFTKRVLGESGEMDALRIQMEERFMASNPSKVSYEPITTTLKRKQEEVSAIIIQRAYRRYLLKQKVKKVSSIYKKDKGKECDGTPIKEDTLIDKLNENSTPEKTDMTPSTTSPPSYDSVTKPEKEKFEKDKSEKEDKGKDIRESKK

T1 sequence (Q99250 whole entry): as the sequence (Q99250 whole entry K905N) above, with N905K counted along it
T2 sequence (Q99250 whole entry R1882Q): as the sequence (Q99250 whole entry K905N) above, with N905K, R1882Q counted along it

- Hill slope Late INa ([1]; late INa at 100 ms, INaL enhanced with 3 nM ATX-II): 0.94 ± 0.06
- Hill slope Peak INa ([1]; peak INa): 0.63 ± 0.07
- Hill slope Late INa ([2]; late INa at 100 ms): 0.64 ± 0.2
- Hill slope Peak INa ([2]; peak INa): 0.36 ± 0.14
- Hill slope Late INa ([3]; late INa at 100 ms): 0.55 ± 0.06
- Hill slope Peak INa ([3]; peak INa): 0.78 ± 0.2
SMILES: O=C1c2cc(-c3ccc(OC(F)(F)F)cc3)ccc2OCCN1Cc1ncccn1 [eleclazine, 4-(pyrimidin-2-ylmethyl)-7-(4-(trifluoromethoxy)phenyl)-3,4-dihydrobenzo[f][1,4]oxazepin-5(2H)-one]
